pIC50: −log10 of the molar value. Active and inactive are the calls of the source. The rule behind the calls is not given here.
How the values were obtained:
[1] = Toxicity in M-NSG mouse xenografted with human U-937 cells harboring p53 V272M mutant assessed as reduction in body weight at 25 mg/kg, ip administered for 11 days and measured on day 18; assay type: organism-based; conditions: in vivo, 432 h, time 18 day
[2] = Drug accumulation in ICR mouse lungs at 10 mg/kg, iv measured upto 24 hrs by ICP-MS analysis; assay type: ADME, organism-based, Lung; conditions: in vivo
[3] = Clearance in mouse assessed as hepatic blood flow; assay type: ADME, tissue-based
U-937 [4] = test: Antitumor activity against GFP-tagged human U-937 cells harboring p53 V272M mutant xenografted in M-NSG mouse assessed as delay in spleen swelling at 25 mg/kg, ip administered for 9 days starting from 7 days post inoculation and measured on day 9 by FACS analysis; assay type: functional, organism-based; conditions: time 9.0 day
[5] = tested on: Cellular tumor antigen p53 (Homo sapiens), P04637 [V272M]; test: Restoration of p53-V272M mutant transcriptional activity on PUMA promoter in human NCI-H1299 cells harboring siRNA-mediated CKAP4 knockdown incubated for 24 hrs by firefly/renilla based luciferase reporter assay; assay type: cell-based
NCI-H1299 [6] = test: Inhibition of colony formation in human NCI-H1299 cells harboring p53-V272M mutant at 2 to 32 uM pretreated for 1 hr followed by culturing in fresh medium and measured on day 7 by crystal violet staining based assay; assay type: functional, cell-based; conditions: dose 2-32 µM
U-937 [7] = test: Induction of cell cycle arrest in human U-937 cells harboring p53-V272M mutant at 0.5 to 8 uM pretreated for 1 hr followed by culturing in fresh medium for 24 hrs by RNase/PI staining based flow cytometry analysis; assay type: functional; conditions: dose 0.5-8 µM
HepG2 = test: Impairment of thiol-mediated drug uptake in human HepG2 cells assessed as reduction in arsenic level at 10 uM pretreated with N-ethylmaleimide for 30 mins followed by compound addition and measured after 10 mins by ICP-MS analysis relative to control; assay type: ADME, cell-based; set-up: scale not given: the % may be the effect or the level left; conditions: hepg2, 10 min
U-937 [8] = test: Induction of cell cycle arrest in human U-937 cells overexpressing p53-V272M mutant assessed as upregulation of GADD45A gene expression by RT-qPCR analysis; assay type: functional, cell-based
U-937 [9] = test: Cytotoxicity against p53 null human U-937 cells harboring empty vector incubated for 48 hrs by CCK-8 assay; assay type: functional, cell-based; conditions: U-937, 48 h
NCI-H1299 [10] = test: Upregulation of PUMA protein expression in human NCI-H1299 cells overexpressing p53-V272M mutant pretreated for 1 hr followed by culturing in fresh medium for 16 hrs by Western blot analysis; assay type: functional, cell-based
[11] = tested on: Cellular tumor antigen p53 (Homo sapiens), P04637 [V272M]; test: (§1) Restoration of p53-V272M mutant transcriptional activity on PUMA promoter in human NCI-H1299 cells at 10 uM pretreated with 20 to 40 uM N-ethylmaleimide for 30 mins followed by compound addition for 10 mins and further incubation in fresh medium for 24 hrs by firefly/renilla based luciferase reporter assay; assay type: cell-based
[12] = target: T1, PML-RARalpha (Homo sapiens) (UniProt P10276+P29590); test: Induction of PML/RARalpha degradation in human NB4 cells assessed as residual protein level at 1 uM incubated for 1 hrs followed by replacement with fresh culture medium and measured after 16 hrs by Western blot analysis (reference value: 1); assay type: cell-based
[13] = Drug uptake in human U-937 cells assessed as fold increase in arsenic accumulation at 10 uM incubated for 10 mins by ICP-MS analysis; assay type: ADME, cell-based; conditions: u-937, 10 min
HL-60 = test: Upregulation of MDM2 protein expression in human HL-60 cells overexpressing p53-V272M mutant pretreated for 1 hr followed by culturing in fresh medium for 16 hrs by Western blot analysis; assay type: functional, cell-based
[14] = target: T1, PML-RARalpha (Homo sapiens); test: Induction of PML/RARalpha degradation in human NB4 cells assessed as appearance of large PML speckles characteristic of normal nuclear bodies at 3 uM incubated for 1 hrs followed by replacement with fresh culture medium and measured after 0.5 to 24 hrs by immunofluorescence analysis; assay type: cell-based
U-937 [15] = test: Induction of cell cycle arrest in human U-937 cells overexpressing p53-V272M mutant assessed as upregulation of p21 encoding CDKN1A gene expression by RT-qPCR analysis; assay type: functional, cell-based
NB-4 [16] = test: Induction of apoptosis in human NB4 cells assessed as early apoptotic cells at 27 uM preincubated for 1 hrs followed by replacement with fresh culture medium and measured after 24 hrs by Annexin V-FITC/7AAD staining based flow cytometry assay (reference value: 2.15%); assay type: functional
[17] = Clearance in ICR mouse at 10 mg/kg, iv measured upto 24 hrs by ICP-MS analysis relative to hepatic blood flow; assay type: ADME, organism-based; conditions: in vivo
NB-4 [18] = test: Induction of granulocytic differentiation in human NB4 cells assessed as CD11b positive cells at 9 uM incubated for 1 hrs followed by replacement with fresh culture medium for 48 hrs by flow cytometry analysis relative to control; assay type: functional
NB-4 [19] = test: Induction of granulocytic differentiation in human NB4 cells assessed as CD11b positive cells at 3 uM incubated for 1 hrs followed by replacement with fresh culture medium for 48 hrs by flow cytometry analysis relative to control; assay type: functional
[20] = tested on: Cellular tumor antigen p53 (Homo sapiens), P04637 [V272M]; test: Thermostabilization of recombinant p53 V272M mutant (unknown origin) […] assessed as increase in melting temperature at 1:15 ratio in HEPES at pH 7.5 by DSF analysis
U-937 [21] = test: Induction of intrinsic apoptosis in human U-937 cells overexpressing p53-V272M mutant assessed as upregulation of BAX gene expression by RT-qPCR analysis; assay type: functional, cell-based
U-937 [22] = test: Upregulation of PUMA protein expression in human U-937 cells overexpressing p53-V272M mutant at 0.1 to 0.5 uM pretreated for 1 hr followed by culturing in fresh medium for 16 hrs by Western blot analysis; assay type: functional, cell-based; conditions: dose 0.1-0.5 µM
U-937 [23] = test: Induction of apoptosis in human U-937 cells harboring p53-V272M mutant assessed as increase in late apoptotic cells at 0.5 to 8 uM pretreated for 1 hr followed by culturing in fresh medium for 24 hrs by Annexin V-FITC/7AAD staining based flow cytometry analysis; assay type: functional, cell-based; conditions: dose 0.5-8 µM
[24] = Drug accumulation in ICR mouse liver at 10 mg/kg, iv measured upto 24 hrs by ICP-MS analysis; assay type: ADME, organism-based; conditions: in vivo
[25] = tested on: Cellular tumor antigen p53 (Homo sapiens), P04637 [V272M]; test: as §1, with “cells at 2.5 to 10 uM” for “cells at 10 uM”, “pretreated with methyl-beta-cyclodextrin for 30” for “pretreated with 20 to 40 uM N-ethylmaleimide for 30”; assay type: cell-based; conditions: dose 2.5-10 µM
U-937 [26] = test: Induction of extrinsic apoptosis in human U-937 cells overexpressing p53-V272M mutant assessed as upregulation of PERP gene expression by RT-qPCR analysis; assay type: functional, cell-based
U-937 [27] = test: Antitumor activity against GFP-tagged human U-937 cells harboring p53 V272M mutant xenografted in M-NSG mouse assessed as decrease in leukemia cell population in bone marrow at 25 mg/kg, ip administered for 9 days starting from 7 days post inoculation and measured on day 2,6,and 9 by FACS analysis; assay type: functional, organism-based; conditions: time 9.0 day
NB-4 [28] = test: Induction of apoptosis in human NB4 cells assessed as viable cells at 27 uM preincubated for 1 hrs followed by replacement with fresh culture medium and measured after 24 hrs by Annexin V-FITC/7AAD staining based flow cytometry assay (reference value: 94%); assay type: functional; conditions: read-out: Activity
[29] = Drug accumulation in ICR mouse kidney at 10 mg/kg, iv measured upto 24 hrs by ICP-MS analysis; assay type: ADME, organism-based; conditions: in vivo

T1 sequence (P10276 whole entry, looked up): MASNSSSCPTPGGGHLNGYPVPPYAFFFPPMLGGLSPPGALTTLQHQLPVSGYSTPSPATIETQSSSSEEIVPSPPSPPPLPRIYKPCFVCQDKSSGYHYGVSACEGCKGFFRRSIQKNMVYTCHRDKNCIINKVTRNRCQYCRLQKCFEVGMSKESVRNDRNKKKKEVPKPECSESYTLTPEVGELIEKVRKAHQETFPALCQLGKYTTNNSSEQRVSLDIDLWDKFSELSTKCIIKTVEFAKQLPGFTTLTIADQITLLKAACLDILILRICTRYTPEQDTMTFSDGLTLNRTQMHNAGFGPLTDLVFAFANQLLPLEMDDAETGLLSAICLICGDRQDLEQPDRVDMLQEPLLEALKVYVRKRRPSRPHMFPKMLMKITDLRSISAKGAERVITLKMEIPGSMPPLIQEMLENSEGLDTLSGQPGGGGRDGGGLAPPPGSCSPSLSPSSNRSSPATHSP
T1 sequence (P29590 whole entry, looked up): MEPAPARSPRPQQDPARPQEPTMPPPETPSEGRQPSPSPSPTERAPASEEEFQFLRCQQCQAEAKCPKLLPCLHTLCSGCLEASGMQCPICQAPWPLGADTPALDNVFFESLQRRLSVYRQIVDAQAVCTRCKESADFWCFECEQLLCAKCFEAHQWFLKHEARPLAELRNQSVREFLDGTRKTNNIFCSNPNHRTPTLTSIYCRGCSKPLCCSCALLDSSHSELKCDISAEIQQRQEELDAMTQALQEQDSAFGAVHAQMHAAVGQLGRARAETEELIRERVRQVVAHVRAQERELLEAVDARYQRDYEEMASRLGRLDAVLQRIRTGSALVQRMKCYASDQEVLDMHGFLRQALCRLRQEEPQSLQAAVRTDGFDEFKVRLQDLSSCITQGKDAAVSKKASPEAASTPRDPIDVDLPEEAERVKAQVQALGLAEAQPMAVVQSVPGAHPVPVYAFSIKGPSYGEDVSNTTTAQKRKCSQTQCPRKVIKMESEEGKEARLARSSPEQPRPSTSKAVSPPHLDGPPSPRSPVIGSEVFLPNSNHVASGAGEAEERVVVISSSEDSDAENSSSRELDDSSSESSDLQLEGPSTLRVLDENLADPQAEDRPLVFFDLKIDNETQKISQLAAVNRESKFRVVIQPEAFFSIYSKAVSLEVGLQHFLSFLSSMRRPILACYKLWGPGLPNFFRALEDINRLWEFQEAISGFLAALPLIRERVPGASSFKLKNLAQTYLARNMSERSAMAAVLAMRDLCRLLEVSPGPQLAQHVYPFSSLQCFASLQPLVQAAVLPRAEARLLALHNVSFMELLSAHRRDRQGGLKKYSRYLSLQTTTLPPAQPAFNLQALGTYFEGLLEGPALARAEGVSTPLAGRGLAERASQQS

Compound: CC(=O)OC[C@H]1O[C@@H](S[As]2SCCS2)[C@H](OC(C)=O)[C@@H](OC(C)=O)[C@@H]1OC(C)=O
- Activity [1]: Non-Toxic
- Drug uptake [2]: Active
- QH [3]: 90 mL/min/kg
- Activity (U-937 [4]): Active
- Activity [5]: inactive
- inhibition (NCI-H1299 [6]): Active
- Activity (U-937 [7]): Active
- Activity (HepG2): ~ 90%
- Activity (U-937 [8]): Active
- pIC50 (U-937 [9]): 5.68
- Activity (NCI-H1299 [10]): Active
- Activity [11]: inactive
- Activity [12]: 0.26
- fold change (FC) [13]: 19
- Activity (HL-60): Active
- Activity [14]: Active
- Activity (U-937 [15]): Active
- Activity (NB-4 [16]): 15.6%
- CLH [17]: 13.7%
- Activity (NB-4 [18]): 20.9%
- Activity (NB-4 [19]): 32.9%
- Activity [20]: inactive
- Activity (U-937 [21]): Active
- Activity (U-937 [22]): Active
- Activity (U-937 [23]): Active
- Drug uptake [24]: Active
- Activity [25]: inactive
- Activity (U-937 [26]): inactive
- Activity (U-937 [27]): Active
- viability at 27 µM (NB-4 [28]): 54.1%
- Drug uptake [29]: Active

— ChEMBL document CHEMBL5375988, “AcGlcAs: A Novel P53-Targeting Arsenical with Potent Cellular Uptake and Cancer Cell Selectivity” (J Med Chem, 2023)
